Experimental data as given in US20170190671A1, “BIS(ARYL)CATECHOL DERIVATIVES AS HERBICIDES” (E I DU PONT DE NEMOURS AND COMPANY, priority 2014, published 2017).

Experiments:
[1] = test system: giant foxtail (Setaria faberii); assay: Test E preemergence; assay type: in vivo; settings: scale 0 to 100
Method in brief: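 Seeds were sown in silt loam soil and sprayed preemergence with test chemicals in a non-phytotoxic solvent mixture containing surfactant. For postemergence, plants at the 1- to 4-leaf stage (2 to 18 cm) in peat-based potting medium were treated. After 14 to 21 days in a greenhouse, injury was rated visually against controls, 0 (no effect) to 100 (complete control).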

[2] = test system: barnyardgrass (Echinochloa crus-galli); assay: Test C preemergence; assay type: in vivo; settings: Echinochloa crus-galli, pre-emergence, read-out: Plant response rating, Barnyardgrass
Method in brief: (§1)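 Visual ratings were made 13-15 days after treatment in the greenhouse, scored 0-100 against controls, where 100 means complete control. Treatments used a surfactant-containing non-phytotoxic solvent formulation, applied preemergence to seeds in loam-sand soil or postemergence to 2-18 cm plants (1-4 leaves) in peat-based medium.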

[3] = test system: waterhemp (common waterhemp, Amaranthus rudis); assay: Test C preemergence; assay type: in vivo; settings: Amaranthus tuberculatus, pre-emergence, scale 0 to 100, read-out: Plant response rating, Waterhemp
Method in brief: as §1

[4] = test system: corn (Zea mays); assay: Test C preemergence; assay type: in vivo; settings: Zea mays, pre-emergence, 336 h, scale 0 to 100
Method in brief: as §1

[5] = test system: velvetleaf (Abutilon theophrasti); assay: Test C preemergence; assay type: in vivo; settings: Abutilon theophrasti, pre-emergence, scale 0 to 100, read-out: Plant response rating, Velvetleaf
Method in brief: as §1

[6] = test system: lambsquarters (Chenopodium album); assay: Test C preemergence; assay type: in vivo; settings: Chenopodium album, pre-emergence, 336 h, scale 0 to 100, read-out: Plant response rating, Lambsquarters
Method in brief: as §1

[7] = test system: johnsongrass (Sorghum halepense); assay: Test C preemergence; assay type: in vivo; settings: Sorghum halepense, pre-emergence, 336 h, scale 0 to 100, read-out: Plant response rating, Johnsongrass
Method in brief: as §1

[8] = test system: yellow nutsedge (Cyperus esculentus); assay: Test C preemergence; assay type: in vivo; settings: Cyperus, pre-emergence, 336 h, scale 0 to 100, read-out: Plant response rating, Nutsedge, Yellow
Method in brief: as §1

[9] = test system: soybean (Glycine max); assay: Test C preemergence; assay type: in vivo; settings: Glycine max, pre-emergence, scale 0 to 100, read-out: Plant response rating, Soybean
Method in brief: as §1

[10] = test system: pigweed (Amaranthus retroflexus); assay: Test C preemergence; assay type: in vivo; settings: Amaranthus retroflexus, pre-emergence, 336 h, scale 0 to 100, read-out: Plant response rating, Pigweed
Method in brief: as §1

[11] = test system: morningglory (Ipomoea coccinea); assay: Test C preemergence; assay type: in vivo; settings: Ipomoea, pre-emergence, 336 h, scale 0 to 100, read-out: Plant response rating, Morningglory
Method in brief: as §1

[12] = test system: galium (catchweed bedstraw, Galium aparine); assay: Test C preemergence; assay type: in vivo; settings: Galium, pre-emergence, 336 h, scale 0 to 100, read-out: Plant response rating, Galium
Method in brief: as §1

[13] = test system: ragweed (common ragweed, Ambrosia elatior); assay: Test C preemergence; assay type: in vivo; settings: Ambrosia artemisiifolia, pre-emergence, 336 h, scale 0 to 100, read-out: Plant response rating, Ragweed
Method in brief: as §1

[14] = test system: Italian ryegrass (Lolium multiflorum); assay: Test C preemergence; assay type: in vivo; settings: Lolium multiflorum, pre-emergence, 336 h, scale 0 to 100, read-out: Plant response rating, Ryegrass, Italian
Method in brief: as §1

[15] = test system: blackgrass (Alopecurus myosuroides); assay: Test C preemergence; assay type: in vivo; settings: Alopecurus myosuroides, pre-emergence, 336 h, scale 0 to 100, read-out: Plant response rating, Blackgrass
Method in brief: as §1

With `Fc1ccc(F)c(Oc2ncc(Cl)cn2)c1Oc1ncc(Cl)cn1` [Compound 34, 2,2′-[(3,6-difluoro-1,2-phenylene)bis(oxy)]bis[5-chloropyrimidine]] the “Plant response rating, Foxtail, Giant” value ([1]; 16 g ai/ha) was 0, the “Plant response rating, Foxtail, Giant” value ([1]; 31 g ai/ha) was 50 and the “Plant response rating, Foxtail, Giant” value ([1]; 62 g ai/ha) was 85. For the same molecule, the “Plant response rating, Foxtail, Giant” value ([1]; 125 g ai/ha) was 80, the pest or weed control at 31 g/ha ([2]; 31 g ai/ha, preemergence, scale 0 to 100) was 55% and the pest or weed control at 62 g/ha ([2]; 62 g ai/ha, preemergence, scale 0 to 100) was 85%. It also gave a pest or weed control at 125 g/ha ([2]; 125 g ai/ha, preemergence, scale 0 to 100) of 98%, a pest or weed control at 16 g/ha ([2]; Preemergence, 16 g ai/ha, scale 0 to 100 (0 no effect, 100 complete control)) of 20% and a pest or weed control at 31 g/ha ([3]; 31 g ai/ha, preemergence) of 100%. It also gave a pest or weed control at 62 g/ha ([3]; 62 g ai/ha, preemergence) of 100%, a pest or weed control at 125 g/ha ([3]; 125 g ai/ha, preemergence) of 100% and a pest or weed control at 16 g/ha ([3]; Preemergence, 16 g ai/ha) of 100%. The Corn plant response rating (crop injury, 0 = no effect, 100 = complete kill) at 31 g/ha ([4]; 31 g ai/ha, preemergence) was 5%, the Corn plant response rating (crop injury, 0 = no effect, 100 = complete kill) at 62 g/ha ([4]; 62 g ai/ha, preemergence) was 20% and the Corn plant response rating (crop injury, 0 = no effect, 100 = complete kill) at 125 g/ha ([4]; 125 g ai/ha, preemergence) was 40%. For the same molecule, the Corn plant response rating (crop injury, 0 = no effect, 100 = complete kill) at 16 g/ha ([4]; Preemergence, 16 g ai/ha) was 0%, the pest or weed control at 31 g/ha ([5]; 31 g ai/ha, preemergence) was 45% and the pest or weed control at 62 g/ha ([5]; 62 g ai/ha, preemergence) was 70%. It also gave a pest or weed control at 125 g/ha ([5]; 125 g ai/ha, preemergence) of 80%, a pest or weed control at 16 g/ha ([5]; Preemergence, 16 g ai/ha) of 35% and a pest or weed control at 31 g/ha ([6]; 31 g ai/ha, preemergence) of 90%. It also gave a pest or weed control at 62 g/ha ([6]; 62 g ai/ha, preemergence) of 100%, a pest or weed control at 125 g/ha ([6]; 125 g ai/ha, preemergence) of 98% and a pest or weed control at 16 g/ha ([6]; Preemergence, 16 g ai/ha) of 80%. It also gave a pest or weed control at 31 g/ha ([7]; 31 g ai/ha, preemergence) of 55%, a pest or weed control at 62 g/ha ([7]; 62 g ai/ha, preemergence) of 75% and a pest or weed control at 125 g/ha ([7]; 125 g ai/ha, preemergence) of 98%. The pest or weed control at 16 g/ha ([7]; Preemergence, 16 g ai/ha) was 50%, the pest or weed control at 31 g/ha ([8]; 31 g ai/ha, preemergence) was 0% and the pest or weed control at 62 g/ha ([8]; 62 g ai/ha, preemergence) was 0%. The pest or weed control at 125 g/ha ([8]; 125 g ai/ha, preemergence) was 5%, the pest or weed control at 16 g/ha ([8]; Preemergence, 16 g ai/ha) was 0% and the plant injury at 31 g/ha ([9]; 31 g ai/ha, preemergence) was 20%. For the same molecule, the plant injury at 62 g/ha ([9]; 62 g ai/ha, preemergence) was 45%, the plant injury at 125 g/ha ([9]; 125 g ai/ha, preemergence) was 55% and the plant injury at 16 g/ha ([9]; Preemergence, 16 g ai/ha) was 5%. For the same molecule, the pest or weed control at 31 g/ha ([10]; 31 g ai/ha, preemergence) was 100%, the pest or weed control at 62 g/ha ([10]; 62 g ai/ha, preemergence) was 100% and the pest or weed control at 125 g/ha ([10]; 125 g ai/ha, preemergence) was 100%. It also gave a pest or weed control at 16 g/ha ([10]; Preemergence, 16 g ai/ha) of 100%, a pest or weed control at 31 g/ha ([11]; 31 g ai/ha, preemergence) of 20% and a pest or weed control at 62 g/ha ([11]; 62 g ai/ha, preemergence) of 60%. For the same molecule, the pest or weed control at 125 g/ha ([11]; 125 g ai/ha, preemergence) was 90%, the pest or weed control at 16 g/ha ([11]; Preemergence, 16 g ai/ha) was 0% and the pest or weed control at 31 g/ha ([12]; 31 g ai/ha, preemergence) was 95%. It also gave a pest or weed control at 62 g/ha ([12]; 62 g ai/ha, preemergence) of 95%, a pest or weed control at 125 g/ha ([12]; 125 g ai/ha, preemergence) of 98% and a pest or weed control at 16 g/ha ([12]; Preemergence, 16 g ai/ha) of 90%. The pest or weed control at 31 g/ha ([13]; 31 g ai/ha, preemergence) was 0%, the pest or weed control at 62 g/ha ([13]; 62 g ai/ha, preemergence) was 25% and the pest or weed control at 125 g/ha ([13]; 125 g ai/ha, preemergence) was 40%. For the same molecule, the pest or weed control at 16 g/ha ([13]; Preemergence, 16 g ai/ha) was 0%, the pest or weed control at 31 g/ha ([14]; 31 g ai/ha, preemergence) was 5% and the pest or weed control at 62 g/ha ([14]; 62 g ai/ha, preemergence) was 10%. For the same molecule, the pest or weed control at 125 g/ha ([14]; 125 g ai/ha, preemergence) was 35%, the pest or weed control at 16 g/ha ([14]; Preemergence, 16 g ai/ha) was 0% and the pest or weed control at 31 g/ha ([15]; 31 g ai/ha, preemergence) was 0%. It also gave a pest or weed control at 62 g/ha ([15]; 62 g ai/ha, preemergence) of 60%, a pest or weed control at 125 g/ha ([15]; 125 g ai/ha, preemergence) of 70% and a pest or weed control at 16 g/ha ([15]; Preemergence, 16 g ai/ha) of 0%. For the same molecule, the melting point was 158 to 161 °C.
